These results are taken from patent publication US4382925A.

The subject of data set [1] is vaccinia virus. In words: microbe, parasite or virus in culture. The class given is cell-based. The note with it: Orthopoxvirus vaccinia.
In data set [2] the test system is Herpes simplex-1 strain KOS. In words: Inhibition of cytopathic effect of herpes simplex-1 virus strain KOS in PRK and HSF cell cultures (Test 1). It counts as cell-based. The note with it: average of three experiments. For orientation: Damage to the host cells serves as the signal in cytopathic effect assays.
The test system of data set [3] is Herpes simplex-1 strain McIntyre. In words: Inhibition of cytopathic effect of herpes simplex-1 virus strain McIntyre in PRK cell cultures (Test 1). It counts as cell-based. Conditions: PRK cells, average of three experiments, read-out: ID50, Herpes simplex-1 strain McIntyre (PRK).
In data set [4] the test system is Herpes simplex-1 strain F. In words: Inhibition of cytopathic effect of herpes simplex-1 virus strain F in PRK cell cultures (Test 1). Conditions: PRK cells, average of three experiments, read-out: ID50, Herpes simplex-1 strain F (PRK). The class given is cell-based.
Data set [5] deals with (Methyl-^3 H)TdR incorporation into cell DNA, PRK cell cultures. The note with it: separate experiments reported by De Clercq et al., PNAS 76, 2947-2951 (1979); cited from earlier work.
The test system of data set [6] is (2-^14 C)UdR incorporation into cell DNA, PRK cell cultures. The note with it: separate experiments reported by De Clercq et al., PNAS 76, 2947-2951 (1979); cited from earlier work.
The test system of data set [7] is herpes simplex-1 (strain KOS) virus. Conditions: separate experiments, De Clercq et al., PNAS 1979; cited from earlier work.
The test system of data set [8] is cell culture. The note with it: prior art literature; cited from earlier work.
Data set [9] concerns herpes simplex-1 (strain KOS) virus. Conditions: dose 10 μl/ml [sic].
Data set [10] can be described thus: Antimetabolic activity in PRK cell cultures: (methyl-^3 H)TdR incorporation into cell DNA (Test 3). It counts as cell-based. The note with it: rabbit, PRK cells, read-out: ID50, (Methyl-^3 H)TdR incorporation into cell DNA. How it is done:
(§1) To this end, the incorporation of certain radiolabelled DNA precursors into DNA of the cells, and the effect of 5-(2-halogenovinyl)-2'-deoxycytidines and related compounds thereon, was tested. The technique has been described by De Clercq et al in Biochemical Pharmacology, 26, 794-797 (1977) and by De Clercq et al in Molecular Pharmacology, 14, 422-430, (1978).
(§2) The DNA precursors as used were (methyl-^3 H), (2'-deoxythymidine ) (TdR), and (2-^14 C) (2'-deoxyuridine) (UdR).
(§3) The cells were exposed to 0.12 μCi:0.01 nmol (methyl-^3 H)TdR (per 10^5 cells) or 14 μCi/250 nmol (2-^14 C) UdR (per 10^5 cells) for 16 hours in the presence of varying concentrations of the compounds (ranging from 1 to 200 μg/ml). Incorporation of the radiolabelled precursor was then measured as described and the ID50 was determined. ID50 corresponds to the inhibitory dose-50, that is the concentration of compound required to inhibit incorporation of either (methyl-^3 H)TdR or (2-^14 C)UdR by 50%.

Data set [11] can be described thus: Antimetabolic activity in PRK cell cultures: (2-^14 C)UdR incorporation into cell DNA (Test 3). It counts as cell-based. Conditions: rabbit, PRK cells, read-out: ID50, (2-^14 C)UdR incorporation into cell DNA. How it is done: as §1, §2, §3
Data set [12] concerns herpes simplex virus. The experiment in a line: Antiviral activity against herpes simplex virus in cell culture, overall statements. Conditions: in words. The class given is cell-based.
In data set [13] the test system is cell culture. The experiment in a line: Toxicity in cell culture, overall statements. It counts as cell-based. Conditions: in words. How it is done:
as §3

For data set [14], the system named is herpes simplex-1 (strain KOS) virus. In words: Antiviral index in PRK cell cultures (Test 4). Conditions: ratio of ID50 for (2-^14 C)UdR incorporation to ID50 for herpes simplex-1 (strain KOS), PRK cells. It counts as cell-based, herpes simplex-1 virus. How it is done: The antiviral index was determined as the ratio of ID50 for (2-^14 C)UdR incorporation into cell DNA to ID50 for herpes simplex-1 (strain KOS) virus replication (compare Tables 1 and 3).

Data set [15] relates to herpes simplex virus. Conditions: De Clercq et al., PNAS 76, 2947-2951 (1979); cited from earlier work.
[16] abbreviates: HSF, read-out: ID50, Vaccinia (HSF).
The mark [17] stands for this setting: PRK, read-out: ID50, Vaccinia (PRK).
The mark [18] stands for this setting: HSF cells, read-out: ID50, Herpes simplex-1 strain KOS (HSF).
The mark [19] stands for this setting: PRK cells, read-out: ID50, Herpes simplex-1 strain KOS (PRK).

In brackets after ≈: the same amount, converted by molar mass. Entries after “also recorded” stand apart in the source; their conditions may differ. Where two headings read alike, the source gives them in different places.

Consider `O=c1[nH]c(=O)n([C@H]2C[C@H](O)[C@@H](CO)O2)cc1I` [5-iodo-2'-deoxyuridine], for which the IC50 in data set [1] (setting [16]) stood at 0.2 µg/mL (≈ 0.565 µM); in data set [1] (setting [17]), 0.02 µg/mL (≈ 0.0565 µM); in [2] (setting [18]), 0.2 µg/mL (≈ 0.565 µM); in data set [2] (setting [19]) it was 0.1 µg/mL (≈ 0.282 µM); in data set [3] it was 0.15 µg/mL (≈ 0.424 µM); in data set [4] it was 0.2 µg/mL (≈ 0.565 µM). For the same compound, the “ID50, (Methyl-^3 H)TdR incorporation into cell DNA (data in parentheses)” value in data set [5] is 2.5 µg/mL (≈ 7.06 µM). In data set [6], the “ID50, (2-^14 C)UdR incorporation into cell DNA (data in parentheses)” value was 1.2 µg/mL (≈ 3.39 µM). Also, the “Antiviral index (numbers in parentheses)” value in data set [7] is 12. Besides, the “toxicity in cell culture, reported” value in data set [8] is “cannot be neglected”. Besides, the “Reduction in virus yield as compared to control (untreated virus-infected) cell cultures” value (from here on “Reduction in virus yield”) was 4.0 log10 PFU/ml in data set [9] (1 day after infection), 2.6 log10 PFU/ml in [9] (2 days after infection) and 1.9 log10 PFU/ml in [9] (3 days after infection).
As to `Nc1nc(=O)n([C@H]2C[C@H](O)[C@@H](CO)O2)cc1/C=C/Br` [E-5-(2-bromovinyl)-2'-deoxycytidine], the IC50 was determined as 2 µg/mL (≈ 6.02 µM) in data set [1] (setting [16]); 10 µg/mL (≈ 30.1 µM) in [1] (setting [17]); 0.07 µg/mL (≈ 0.211 µM) in data set [2] (setting [18]); 0.07 µg/mL (≈ 0.211 µM) in data set [2] (setting [19]); 0.07 µg/mL (≈ 0.211 µM) in [3]; 0.1 µg/mL (≈ 0.301 µM) in data set [4]. Besides, the IC50 at 16 h in [10] and in [11] was more than 200 µg/mL throughout. Besides, the “specific antiviral activity against herpes simplex virus” value in data set [12] was “excellent and highly specific antiviral activity against herpes simplex virus; also recorded: very specific towards herpes simplex virus”. The “toxicity in cell culture” value in data set [13] is “apparently nil; also recorded: apparent lack of toxicity in cell culture”. Moreover, the “Reduction in virus yield” value in data set [9] (1 day after infection) is listed as 3.8 log10 PFU/ml; in data set [9] (2 days after infection) it was 2.9 log10 PFU/ml; in data set [9] (3 days after infection) it was 2.2 log10 PFU/ml.
On to `O=c1[nH]c(=O)n([C@H]2C[C@H](O)[C@@H](CO)O2)cc1/C=C/Br` [E-5-(2-bromovinyl)-2'-deoxyuridine], for which the IC50 in data set [1] (setting [16]) is 0.7 µg/mL (≈ 2.1 µM); in data set [1] (setting [17]), 7 µg/mL (≈ 21 µM); in data set [2] (setting [18]), 0.01 µg/mL (≈ 0.03 µM); in data set [2] (setting [19]) it was 0.007 µg/mL (≈ 0.021 µM); in [3] it was 0.01 µg/mL (≈ 0.03 µM); in data set [4], 0.01 µg/mL (≈ 0.03 µM). Further, the IC50 at 16 h in data set [10] and in [11] was 100 µg/mL (≈ 300 µM) each time. For the same compound, the Antiviral index in data set [14] worked out at 14300. In addition, in data set [5], the “ID50, (Methyl-^3 H)TdR incorporation into cell DNA (data in parentheses)” value is 70 µg/mL (≈ 210 µM). For the same compound, the “ID50, (2-^14 C)UdR incorporation into cell DNA (data in parentheses)” value in [6] is 70 µg/mL (≈ 210 µM). Besides, the “Antiviral index (numbers in parentheses)” value in data set [7] was 10000. Moreover, in data set [15], the “antiviral activity against herpes simplex virus, reported” value was “specific antiviral activity against herpes simplex virus”. In addition, in data set [8], the “toxicity in cell culture, reported” value was “low toxicity in cell culture”.
Turning to `Nc1nc(=O)n([C@H]2C[C@H](O)[C@@H](CO)O2)cc1/C=C/I` [E-5-(2-iodovinyl)-2'-deoxycytidine], the IC50 in [1] (setting [16]) came to 7 µg/mL (≈ 18.5 µM); in [1] (setting [17]) it was 10 µg/mL (≈ 26.4 µM); in data set [2] (setting [18]) it was 0.07 µg/mL (≈ 0.185 µM); in data set [2] (setting [19]) it was 0.1 µg/mL (≈ 0.264 µM); in data set [3] it was 0.07 µg/mL (≈ 0.185 µM); in data set [4], 0.2 µg/mL (≈ 0.527 µM). The IC50 at 16 h in data set [10] and in data set [11] was more than 200 µg/mL throughout. For the same compound, the “specific antiviral activity against herpes simplex virus” value in data set [12] is “excellent and highly specific antiviral activity against herpes simplex virus; also recorded: very specific towards herpes simplex virus”. Moreover, the “toxicity in cell culture” value in data set [13] was “apparently nil; also recorded: apparent lack of toxicity in cell culture”. Further, the “Reduction in virus yield” value worked out at 4.3 log10 PFU/ml in data set [9] (1 day after infection), 2.8 log10 PFU/ml in data set [9] (2 days after infection) and 2.0 log10 PFU/ml in data set [9] (3 days after infection).
For `O=c1[nH]c(=O)n([C@H]2C[C@H](O)[C@@H](CO)O2)cc1/C=C/I` [E-5-(2-iodovinyl)-2'-deoxyuridine], the IC50 is 1 µg/mL (≈ 2.63 µM) in [1] (setting [16]); 10 µg/mL (≈ 26.3 µM) in data set [1] (setting [17]); 0.02 µg/mL (≈ 0.0526 µM) in data set [2] (setting [18]); 0.01 µg/mL (≈ 0.0263 µM) in data set [2] (setting [19]); 0.01 µg/mL (≈ 0.0263 µM) in [3]; 0.01 µg/mL (≈ 0.0263 µM) in data set [4]. The IC50 at 16 h in data set [10] worked out at 80 µg/mL (≈ 210 µM); in data set [11], 150 µg/mL (≈ 395 µM). In addition, the Antiviral index in data set [14] stood at 15000. Further, the “ID50, (Methyl-^3 H)TdR incorporation into cell DNA (data in parentheses)” value in data set [5] was 70 µg/mL (≈ 184 µM). Also, in [6], the “ID50, (2-^14 C)UdR incorporation into cell DNA (data in parentheses)” value was 70 µg/mL (≈ 184 µM). In addition, in [7], the “Antiviral index (numbers in parentheses)” value is 7000. Moreover, the “antiviral activity against herpes simplex virus, reported” value in [15] is reported as “specific antiviral activity against herpes simplex virus”. In addition, in [8], the “toxicity in cell culture, reported” value is reported as “low toxicity in cell culture”.
